# Test system: gene expression in D04 melanoma cells
# Assay: RNA-Seq differential expression analysis (DESeq2)
# Assay type: cell-based, human
# Details: up-regulated list
# Protocol: Total RNA was isolated using the RNeasy mini Kit (QIAGEN) following the manufacturer's protocol. Quality check for extracted RNA was done using 2100 Bioanalyzer (Agilent Technologies, USA) or Tapestation System (Agilent Technologies, USA). […] For samples used for identification of MAPK-responsive lncRNAs, paired-end, 101-bp sequencing was performed by Centrillion Genomic Services (Centrillion Biosciences, USA) on an Illumina HiSeq 2000. For DE gene analysis of ASO-transfected D04 samples, paired-end, 2×150-bp sequencing was performed by Genewiz (USA) on a Illumina HiSeq.
# Sequence reads were aligned to the human genome (hg19) using TopHat (Version 2.0.11).
# Differential expression (DE) analysis was done using DESeq2. Differentially expressed genes were defined by more than 1.5-fold changes (log 2 >0.58 or <−0.58) in expression with FDR<0.05. GO term analysis was done using DAVID Functional Annotation Clustering analysis.
# To examine the biomolecular changes upon TRASH-inhibition in melanoma, D04 cells were treated with TRASH-ASOs (SEQ ID NO:15) and Control-ASOs and RNA was extracted and used for RNA-Seq. […] These GO terms consisted of genes encoding growth factors, tyrosine kinases, G protein coupled receptor subunits, and collagen subunits. Scatter plot diagram showing differential gene expression after TRASH-ASO treatment compared to Control-ASO treatment. (cut-off for significance was adjusted p-value <0.05). Data was obtained from RNA-Seq of D04 melanoma cells, treatment period was three days. (FIG. 5c)
sequence,measurement,setting,value
"GACTGGAGATAATTAA (gapmer, pattern not given here) [SEQ ID NO: 15, GapmeR ASO targeting AC004540.4 (TRASH), exon region of both isoforms; used for in vitro experiments]",log2FoldChange BBC3,ENSG00000105327,0.619
same,log2FoldChange CD33,ENSG00000105383,0.929
same,log2FoldChange PLA2G4C,ENSG00000105499,0.608
same,log2FoldChange HBP1,ENSG00000105856,0.6116
same,log2FoldChange ATP6V0A4,ENSG00000105929,0.8207
same,log2FoldChange CPED1,ENSG00000106034,0.7035
same,log2FoldChange SERPINE1,ENSG00000106366,0.6383
same,log2FoldChange ABI3,ENSG00000108798,0.9913
same,log2FoldChange SLC16A6,ENSG00000108932,0.91
same,log2FoldChange LPXN,ENSG00000110031,0.7633
same,log2FoldChange ATG2A,ENSG00000110046,0.5858
same,log2FoldChange CHKA,ENSG00000110721,0.7402
same,log2FoldChange RASAL1,ENSG00000111344,0.896
same,log2FoldChange RBM24,ENSG00000112183,0.8237
same,log2FoldChange TREML2,ENSG00000112195,1.205
same,log2FoldChange WWC1,ENSG00000113645,0.6261
same,log2FoldChange STC2,ENSG00000113739,0.7339
same,log2FoldChange TNNC1,ENSG00000114854,1.043
same,log2FoldChange IL1A,ENSG00000115008,0.7632
same,log2FoldChange ACTL8,ENSG00000117148,1.133
same,log2FoldChange TSPAN1,ENSG00000117472,0.7518
same,log2FoldChange IRF6,ENSG00000117595,0.7078
same,log2FoldChange DIEXF,ENSG00000117597,0.6611
same,log2FoldChange MUC5B,ENSG00000117983,0.599
same,log2FoldChange NR4A3,ENSG00000119508,1.046
same,log2FoldChange GPR75,ENSG00000119737,0.8604
same,log2FoldChange AVPI1,ENSG00000119986,0.7469
same,log2FoldChange DUSP1,ENSG00000120129,1.094
same,log2FoldChange FABP3,ENSG00000121769,0.9724
same,log2FoldChange CCRL2,ENSG00000121797,1.162
same,log2FoldChange PAEP,ENSG00000122133,0.8405
same,log2FoldChange PLAU,ENSG00000122861,1.118
same,log2FoldChange SLC25A16,ENSG00000122912,0.8143
same,log2FoldChange KCNK15,ENSG00000124249,1.203
same,log2FoldChange PAIP2B,ENSG00000124374,1.015
same,log2FoldChange MT1G,ENSG00000125144,1.136
same,log2FoldChange MT2A,ENSG00000125148,0.8492
same,log2FoldChange BMP4,ENSG00000125378,0.657
same,log2FoldChange IL1B,ENSG00000125538,1.059
same,log2FoldChange PSD4,ENSG00000125637,0.7899
same,log2FoldChange ARMCX1,ENSG00000126947,0.5964
same,log2FoldChange BEST3,ENSG00000127325,1.14
same,log2FoldChange KLF2,ENSG00000127528,0.7602
same,log2FoldChange AKAP9,ENSG00000127914,0.609
same,log2FoldChange KRT17,ENSG00000128422,1.116
same,log2FoldChange VGF,ENSG00000128564,0.9691
same,log2FoldChange CSRP3,ENSG00000129170,1.122
same,log2FoldChange AJUBA,ENSG00000129474,0.6241
same,log2FoldChange CDH15,ENSG00000129910,0.8921
same,log2FoldChange SYT5,ENSG00000129990,1.139
same,log2FoldChange UNC13A,ENSG00000130477,1.071
same,log2FoldChange ULBP3,ENSG00000131019,0.6552
same,log2FoldChange ZBED3,ENSG00000132846,0.778
same,log2FoldChange BEX2,ENSG00000133134,0.7157
same,log2FoldChange BEX1,ENSG00000133169,0.6316
same,log2FoldChange BTG1,ENSG00000133639,0.69
same,log2FoldChange DYDC2,ENSG00000133665,0.987
same,log2FoldChange TRPM1,ENSG00000134160,1.155
same,log2FoldChange PTPN22,ENSG00000134242,1.051
same,log2FoldChange FST,ENSG00000134363,0.8947
same,log2FoldChange SLC37A2,ENSG00000134955,0.7294
same,log2FoldChange NT5E,ENSG00000135318,0.6889
same,log2FoldChange RDH5,ENSG00000135437,0.8676
same,log2FoldChange PKIB,ENSG00000135549,0.7917
same,log2FoldChange DYSF,ENSG00000135636,0.9396
same,log2FoldChange LCP1,ENSG00000136167,1.021
same,log2FoldChange IL6,ENSG00000136244,0.8209
same,log2FoldChange MYC,ENSG00000136997,0.6121
same,log2FoldChange RNF144B,ENSG00000137393,1.04
same,log2FoldChange ARHGAP29,ENSG00000137962,0.6178
same,log2FoldChange AOX1,ENSG00000138356,1.099
same,log2FoldChange FGF5,ENSG00000138675,0.9785
same,log2FoldChange ANXA3,ENSG00000138772,0.8166
same,log2FoldChange SLC46A3,ENSG00000139508,0.6816
same,log2FoldChange CYP11A1,ENSG00000140459,0.9698
same,log2FoldChange RHCG,ENSG00000140519,1.166
same,log2FoldChange ITGAX,ENSG00000140678,0.7501
same,log2FoldChange MAP1LC3B,ENSG00000140941,0.7968
same,log2FoldChange NPC1,ENSG00000141458,0.6586
same,log2FoldChange SLC14A1,ENSG00000141469,1.217
same,log2FoldChange NECTIN4,ENSG00000143217,1.206
same,log2FoldChange ABL2,ENSG00000143322,0.8447
same,log2FoldChange RORC,ENSG00000143365,0.8825
same,log2FoldChange TUFT1,ENSG00000143367,0.8984
same,log2FoldChange DYRK3,ENSG00000143479,0.5876
same,log2FoldChange DUSP10,ENSG00000143507,0.6264
same,log2FoldChange SLC20A1,ENSG00000144136,0.585

# — patent publication US20250197864A1, “LNCRNA TRANSCRIPTS IN MELANOMAGENESIS” (The Regents of the University of California, priority 2021, published 2025)
